In ChEMBL document CHEMBL1909046, “DrugMatrix in vitro pharmacology data”:

Key:
[1] = biological target: T1, Alpha-2C adrenergic receptor (Homo sapiens, UniProt P18825); experiment: DRUGMATRIX: Adrenergic Alpha-2C radioligand binding (ligand: [3H] MK-912); type: cell membranes, Sf9, Membrane
T1 sequence (P18825 whole entry): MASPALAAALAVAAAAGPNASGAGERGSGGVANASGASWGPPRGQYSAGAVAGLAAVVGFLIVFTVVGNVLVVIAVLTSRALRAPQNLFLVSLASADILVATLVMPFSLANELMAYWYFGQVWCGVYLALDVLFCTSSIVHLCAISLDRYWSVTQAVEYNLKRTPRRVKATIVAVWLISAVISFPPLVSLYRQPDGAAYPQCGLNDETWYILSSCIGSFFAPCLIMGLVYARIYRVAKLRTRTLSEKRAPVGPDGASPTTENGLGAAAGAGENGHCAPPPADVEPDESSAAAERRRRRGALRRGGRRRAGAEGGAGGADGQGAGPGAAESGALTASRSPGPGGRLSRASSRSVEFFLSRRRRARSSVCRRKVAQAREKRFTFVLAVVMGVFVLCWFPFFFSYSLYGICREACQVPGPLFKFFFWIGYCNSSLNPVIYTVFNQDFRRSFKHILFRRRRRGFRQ

[2] = biological target: Beta-1 adrenergic receptor (Homo sapiens, UniProt P08588); experiment: DRUGMATRIX: Adrenergic beta1 radioligand binding (ligand: [125I] Cyanopindolol); type: cell membranes, CHO-K1, Membrane; settings: cho-k1; Not Active = under 50% inhibition at 10 µM
Thromboxane-A synthase = biological target: T2, Thromboxane-A synthase (Homo sapiens, UniProt P24557); experiment: biochemical; type: tissue-based, Platelet;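 note: enzyme inhibition assay with PGH2 supplied as substrate; in other assays of this panel Not Active means under 50% inhibition at 10 µM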
T2 sequence (P24557 whole entry): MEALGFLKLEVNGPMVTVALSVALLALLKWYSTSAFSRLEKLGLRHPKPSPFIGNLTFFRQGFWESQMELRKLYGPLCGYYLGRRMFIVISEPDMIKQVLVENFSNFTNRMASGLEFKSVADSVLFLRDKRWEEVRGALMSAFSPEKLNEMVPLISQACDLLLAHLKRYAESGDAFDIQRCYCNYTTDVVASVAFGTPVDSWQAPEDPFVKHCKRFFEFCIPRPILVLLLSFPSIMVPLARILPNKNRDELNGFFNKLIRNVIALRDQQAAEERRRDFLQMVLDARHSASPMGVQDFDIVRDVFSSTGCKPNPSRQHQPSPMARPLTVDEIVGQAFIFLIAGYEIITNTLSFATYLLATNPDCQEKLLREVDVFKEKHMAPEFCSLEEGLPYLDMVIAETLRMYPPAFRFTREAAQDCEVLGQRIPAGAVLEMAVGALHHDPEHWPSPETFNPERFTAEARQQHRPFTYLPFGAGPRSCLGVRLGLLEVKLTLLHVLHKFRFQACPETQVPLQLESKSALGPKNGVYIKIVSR

[3] = biological target: T3, Neuropeptide Y receptor type 1 (Homo sapiens, UniProt P25929); type: cell membranes, Membrane; settings: sk-n-mc; note: in other assays of this panel Not Active means under 50% inhibition at 10 µM
T3 sequence (P25929 whole entry): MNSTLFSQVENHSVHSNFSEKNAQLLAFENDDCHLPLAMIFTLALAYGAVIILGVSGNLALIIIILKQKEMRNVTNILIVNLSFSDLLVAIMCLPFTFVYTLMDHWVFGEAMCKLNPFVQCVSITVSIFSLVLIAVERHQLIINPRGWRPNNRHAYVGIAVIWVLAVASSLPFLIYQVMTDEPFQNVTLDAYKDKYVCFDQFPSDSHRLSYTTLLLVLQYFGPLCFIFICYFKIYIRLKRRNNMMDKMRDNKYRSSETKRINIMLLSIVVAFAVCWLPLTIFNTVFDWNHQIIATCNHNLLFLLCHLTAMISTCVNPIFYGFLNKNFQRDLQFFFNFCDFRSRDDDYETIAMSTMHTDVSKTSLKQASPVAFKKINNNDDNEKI

[4] = biological target: Tyrosine-protein kinase Lck (Homo sapiens, UniProt P06239); experiment: DRUGMATRIX: Protein Tyrosine Kinase, LCK enzyme inhibition (substrate: Poly(Glu:Tyr)); type: cell-based, Insect cells; settings: Not Active = under 50% inhibition at 10 µM
Cytochrome P450 3A4 = Cytochrome P450 3A4 (Homo sapiens, UniProt P08684); settings: bti-tn-5b1-4; note: in other assays of this panel Not Active means under 50% inhibition at 10 µM
Cytochrome P450 3A4, sequence (P08684 whole entry): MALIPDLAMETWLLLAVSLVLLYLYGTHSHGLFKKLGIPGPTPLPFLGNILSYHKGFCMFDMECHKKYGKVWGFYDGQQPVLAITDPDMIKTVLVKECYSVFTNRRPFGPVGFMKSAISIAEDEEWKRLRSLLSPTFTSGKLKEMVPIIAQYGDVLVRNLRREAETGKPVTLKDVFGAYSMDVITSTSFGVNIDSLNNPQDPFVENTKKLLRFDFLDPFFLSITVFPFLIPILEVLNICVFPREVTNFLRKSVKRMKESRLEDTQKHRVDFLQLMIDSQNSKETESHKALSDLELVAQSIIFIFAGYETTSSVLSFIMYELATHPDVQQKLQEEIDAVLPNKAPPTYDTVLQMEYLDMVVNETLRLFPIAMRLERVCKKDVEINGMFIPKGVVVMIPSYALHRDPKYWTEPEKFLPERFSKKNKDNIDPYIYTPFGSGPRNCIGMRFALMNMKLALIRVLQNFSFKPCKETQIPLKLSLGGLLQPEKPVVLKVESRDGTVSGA

Beta-1 adrenergic receptor, sequence (P08588 whole entry): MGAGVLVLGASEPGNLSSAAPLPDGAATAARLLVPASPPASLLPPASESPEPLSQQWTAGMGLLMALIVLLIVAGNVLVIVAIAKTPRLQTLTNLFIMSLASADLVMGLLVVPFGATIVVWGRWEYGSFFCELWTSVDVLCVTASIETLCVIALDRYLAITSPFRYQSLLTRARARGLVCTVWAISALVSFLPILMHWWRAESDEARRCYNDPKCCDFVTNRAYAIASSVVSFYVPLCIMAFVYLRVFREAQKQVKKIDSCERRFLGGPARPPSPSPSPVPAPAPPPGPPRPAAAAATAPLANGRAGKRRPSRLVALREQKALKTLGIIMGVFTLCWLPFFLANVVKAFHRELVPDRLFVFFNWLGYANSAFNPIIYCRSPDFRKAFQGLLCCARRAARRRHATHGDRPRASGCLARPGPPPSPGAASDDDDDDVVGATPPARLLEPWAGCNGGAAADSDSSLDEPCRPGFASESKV
Tyrosine-protein kinase Lck, sequence (P06239 whole entry): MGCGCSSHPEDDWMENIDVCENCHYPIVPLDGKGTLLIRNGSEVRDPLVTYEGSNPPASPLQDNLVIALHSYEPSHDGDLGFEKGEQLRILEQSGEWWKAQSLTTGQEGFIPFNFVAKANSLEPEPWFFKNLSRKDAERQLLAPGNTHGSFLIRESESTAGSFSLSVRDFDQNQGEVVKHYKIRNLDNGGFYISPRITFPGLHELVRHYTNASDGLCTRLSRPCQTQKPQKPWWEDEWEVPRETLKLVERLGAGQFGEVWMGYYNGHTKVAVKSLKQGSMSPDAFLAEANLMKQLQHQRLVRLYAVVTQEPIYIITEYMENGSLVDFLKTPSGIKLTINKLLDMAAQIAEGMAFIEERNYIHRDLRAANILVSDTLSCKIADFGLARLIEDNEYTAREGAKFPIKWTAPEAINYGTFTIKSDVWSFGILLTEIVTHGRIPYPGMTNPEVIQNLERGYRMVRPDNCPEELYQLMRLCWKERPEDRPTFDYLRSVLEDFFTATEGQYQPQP

| Molecule | IC50 ([1]; sf9) | IC50 [2] | IC50 (Thromboxane-A synthase; platelet) | IC50 [3] | IC50 ([4]; insect cells) | IC50 (Cytochrome P450 3A4) | Ki (Cytochrome P450 3A4) | IC50 ([1]; read-out: IC50) | Ki ([1]; read-out: Ki) | IC50 (Thromboxane-A synthase; read-out: IC50) | IC50 ([4]; read-out: IC50) | Ki ([1]; sf9) | Ki [2] | IC50 (Thromboxane-A synthase; platelet, read-out: IC50) | Ki [3] | IC50 ([4]; insect cells, read-out: IC50) |
| --- | --- | --- | --- | --- | --- | --- | --- | --- | --- | --- | --- | --- | --- | --- | --- | --- |
| NNc1nncc2ccccc12 [HYDRALAZINE] | Not Active | Not Active | Not Active | Not Active | Not Active | Not Active | Not Active |  |  |  |  |  |  |  |  |  |
| O=c1cnn([C@@H]2O[C@H](CO)[C@@H](O)[C@H]2O)c(=O)[nH]1 [6-AZAURIDINE] | Not Active | Not Active | Not Active | Not Active | Not Active | Not Active | Not Active |  |  |  |  |  |  |  |  |  |
| Cn1c(=O)c2c(ncn2CC(O)CO)n(C)c1=O (centres undefined) [DYPHYLLINE] | Not Active | Not Active | Not Active | Not Active | Not Active | Not Active | Not Active |  |  |  |  |  |  |  |  |  |
| C[C@@H]1C[C@H]2[C@@H]3CCC4=CC(=O)C=C[C@]4(C)[C@@]3(F)[C@@H](O)C[C@]2(C)[C@H]1C(=O)CO [DESOXIMETASONE] | Not Active | Not Active | Not Active | Not Active | Not Active | Not Active | Not Active |  |  |  |  |  |  |  |  |  |
| CC(C)(C)NC(=O)[C@H]1CC[C@H]2[C@@H]3CC[C@H]4NC(=O)C=C[C@]4(C)[C@H]3CC[C@]12C [FINASTERIDE] | Not Active | Not Active | Not Active | Not Active | Not Active | Not Active | Not Active |  |  |  |  |  |  |  |  |  |
| CCn1cc(C(=O)O)c(=O)c2cnc(N3CCCC3)nc21 [PIROMIDIC ACID] | Not Active | Not Active | Not Active | Not Active | Not Active | Not Active | Not Active |  |  |  |  |  |  |  |  |  |
| CC1(C)S[C@@H]2[C@H](NC(=O)[C@H](N)c3ccccc3)C(=O)N2[C@H]1C(=O)O [AMPICILLIN] | Not Active | Not Active | Not Active | Not Active | Not Active | Not Active | Not Active |  |  |  |  |  |  |  |  |  |
| CCN(CC)CCOCCC1=CCC2CC1C2(C)C (centres undefined) [MYRTECAINE] | Not Active | Not Active | Not Active | Not Active | Not Active | Not Active | Not Active |  |  |  |  |  |  |  |  |  |
| COC(=O)Nc1nc2ccc([S+]([O-])c3ccccc3)cc2[nH]1 (centres undefined) [OXFENDAZOLE] | Not Active | Not Active | Not Active | Not Active | Not Active | Not Active | Not Active |  |  |  |  |  |  |  |  |  |
| Oc1c(Cl)cc(Cl)c(Cl)c1Cc1c(O)c(Cl)cc(Cl)c1Cl [HEXACHLOROPHENE] |  | Not Active |  | Not Active |  | Not Active | Not Active | 6.98 µM | 1010 nM | 3090 nM | 2430 nM |  |  |  |  |  |
| C[C@]12C=CC(=O)C=C1CC[C@@H]1[C@@H]2[C@@H](O)C[C@@]2(C)[C@H]1CC[C@]2(O)C(=O)CO [PREDNISOLONE] | Not Active | Not Active | Not Active | Not Active | Not Active | Not Active | Not Active |  |  |  |  |  |  |  |  |  |
| O=C1O[C@H]([C@@H](O)CO)C(O)=C1O [ASCORBIC ACID] | Not Active | Not Active | Not Active | Not Active | Not Active | Not Active | Not Active |  |  |  |  |  |  |  |  |  |
| COc1ccc(C2C(=O)c3ccccc3C2=O)cc1 [ANISINDIONE] | Not Active | Not Active | Not Active | Not Active | Not Active | Not Active | Not Active |  |  |  |  |  |  |  |  |  |
| Brc1c(NC2=NCCN2)ccc2nccnc12 [BRIMONIDINE] | Not Active | Not Active | Not Active | Not Active | Not Active | Not Active | Not Active |  |  |  |  |  |  |  |  |  |
| COc1ccc(C(=O)N2CCCC2=O)cc1 | Not Active | Not Active | Not Active | Not Active | Not Active | Not Active | Not Active |  |  |  |  |  |  |  |  |  |
| O=C(c1ccccc1C(F)(F)F)N1CCC(Cc2ccccc2)CC1 | Not Active | Not Active | Not Active | Not Active | Not Active | Not Active | Not Active |  |  |  |  |  |  |  |  |  |
| CCC1(C)CC(=O)NC1=O (centres undefined) [ETHOSUXIMIDE] | Not Active | Not Active | Not Active | Not Active | Not Active | Not Active | Not Active |  |  |  |  |  |  |  |  |  |
| GRAMICIDIN | Not Active | Not Active |  | Not Active |  | Not Active | Not Active |  |  |  |  | Not Active | Not Active | 774 nM | Not Active | 1090 nM |
| OC(CCCN1CCCCC1)(c1ccccc1)c1ccccc1 [DIPHENIDOL] | Not Active | Not Active | Not Active | Not Active | Not Active | Not Active | Not Active |  |  |  |  |  |  |  |  |  |
| CCC(=O)O[C@]1(C(=O)CCl)[C@@H](C)C[C@H]2[C@@H]3CCC4=CC(=O)C=C[C@]4(C)[C@@]3(F)[C@@H](O)C[C@@]21C [CLOBETASOL PROPIONATE] | Not Active | Not Active | Not Active | Not Active | Not Active | Not Active | Not Active |  |  |  |  |  |  |  |  |  |
| Cc1c(OCC(F)(F)F)ccnc1C[S+]([O-])c1nc2ccccc2[nH]1 (centres undefined) [LANSOPRAZOLE] | Not Active | Not Active | Not Active | Not Active | Not Active | Not Active | Not Active |  |  |  |  |  |  |  |  |  |
| CCCOc1ccc(C(=O)OCCN(CC)CC)cc1N [PROPARACAINE] | Not Active | Not Active | Not Active | Not Active | Not Active | Not Active | Not Active |  |  |  |  |  |  |  |  |  |
| CC(=O)[C@H]1[C@H](C#N)C[C@H]2[C@@H]3CC=C4C[C@@H](O)CC[C@]4(C)[C@H]3CC[C@@]21C [PREGNENOLONE CARBONITRILE] | Not Active | Not Active | Not Active | Not Active | Not Active | Not Active | Not Active |  |  |  |  |  |  |  |  |  |
| CN(C)CC[C@@H](c1ccc(Cl)cc1)c1ccccn1 [DEXCHLORPHENIRAMINE] | Not Active | Not Active | Not Active | Not Active | Not Active | Not Active | Not Active |  |  |  |  |  |  |  |  |  |
| CC[C@H](C)[C@H]1O[C@]2(C=C[C@@H]1C)C[C@@H]1C[C@@H](C/C=C(\C)[C@@H](O[C@H]3C[C@H](OC)[C@@H](O[C@H]4C[C@H](OC)[C@@H](O)[C@H](C)O4)[C@H](C)O3)[C@@H](C)/C=C/C=C3\CO[C@@H]4[C@H](O)C(C)=C[C@@H](C(=O)O1)[C@]34O)O2.CO[C@H]1C[C@H](O[C@H]2[C@H](C)O[C@@H](O[C@@H]3/C(C)=C/C[C@@H]4C[C@@H](C[C@]5(C=C[C@H](C)[C@@H](C(C)C)O5)O4)OC(=O)[C@@H]4C=C(C)[C@@H](O)[C@H]5OC/C(=C\C=C\[C@@H]3C)[C@]54O)C[C@@H]2OC)O[C@@H](C)[C@@H]1O [ABAMECTIN] | Not Active | Not Active | Not Active | Not Active | Not Active | Not Active | Not Active |  |  |  |  |  |  |  |  |  |
